We go through 1 compound from patent US11497813B2, “Bortezomib conjugates and methods using same” (Frank EBETINO et al., priority 2015, dated 2022).

The test relates to UPS activation. Description: Ub^G76V-GFP reporter cells (GFP+ cells) in osteoclast cultures and on pre-incubated bone slices. The format is cell-based, mouse. Conditions: BM cells from Ub^G76V-GFP mice on bone slices pre-incubated with compound. Here is the method:
FIG. 5A is a scheme of an exemplary synthesis of compound BP-Btz1. FIG. 5B is a series of images of bone slices pre-incubated with 1 μM BP-Btz1, Btz, or bisphosphonate (BP) overnight. Drug solutions were removed and bone slices were washed with PBS extensively. […] (BM) cells from UB^G76V-GFP mice were cultured on bone slices in the presence of M-CSF and RANKL for 9 days. Top images (a): GFP^+ cells were observed under a fluorescence microscope and GFP signal intensity was quantified. Middle images (b): bone slices were fixed and subjected to TRAP staining for osteoclasts (OCs). OC #/slice were counted. Bottom images (c): cells were removed from slices. Toluidine blue staining was performed and pit areas/slice were counted. FIG. 5C is a series of images of murine BM cells cultured and stained for ALP. FIG. 5D is a series of images of human MSCs cultured and stained for ALP. Murine BM cells and human MSCs were cultured in the OB-inducing medium plus different concentrations of BP-Btz1 or Btz for 4 or 6 days, respectively. Cells were stained for ALP. The ALP^+ areas were measured by Image J. *P<0.05 vs. Btz-treated cells.
1. Ub^G76V-GFP mice in B6 background (Stock #008111, Jax lab) are generated using previously described methods (Lindsten et al., 2003, Nat. Biotech. 21:897-902). The Ub^G76V-GFP transgene was designed with a chicken beta-actin promoter and CMV immediate early enhancer upstream of a GFP fused to a mutant ubiquitin moiety (Ub^G76V), a constitutively active proteasome degradation signal. Following proteasome inhibitor administration, Ub^G76V accumulates and GFP fluorescence is readily apparent. GFP^+ OCs were detected at 4 and 8 hrs after adding Btz to OC cultures, which disappeared at 24 hrs. […] 2. OC formation and resorption assays and data analyses are performed as described herein (FIG. 4) and using previously described methods (Zhang et al., 2014, J. Clin. Invest. 124:3200-3214; Xiu et al., 2014, J. Clin. Invest. 124:297-310). […] The number and area of OCs and resorption pits are assessed. The appearance, intensity and distribution of GFP^+ cells on bone slices and plastic surrounding bone slices during OC formation is observed and recorded. 3. OB differentiation. Third passages of BM stromal cells are used as MPCs, as previously described (Shu et al., 2013, J. Bone Min. Res. 28:1925-1935; Zhang et al., 2014, J. Clin. Invest. 124:3200-3214). MPCs are cultured on plastic plates in OB-inducing medium±BP-Btz conjugates, Btz or BP (0.1-100 nM) for 1-3 wks. Plates are subjected to alkaline phosphatase (ALP) and alizarin red staining, and qPCR analyses. Area of ALP^+ and mineralized bone nodule, and the expression levels of OB marker genes (ALP, osteocalcin, Runx2) are measured. GFP^+ cells during OB differentiation are observed as in OCs. In a parallel experiment, human MSCs (from Lonza) are treated with BP-Btz, Btz, or BP in OB-inducing medium and their effects examined on OB differentiation as show in FIGS. 5C and 5D. 4. Western blot/Ub assays. OCPs or MPCs are treated with a preferred dose of leading BP-Btz, Btz and BP. OCP lysates are subjected to Western blot using α-NF-κB members and TRAF6 Abs. OB lysates are subjected to Western blot with α-ubiquitin, Runx2, or JunB Abs, and Ub assays using UbiQapture matrix (Biomol) to pull down Ub-proteins followed by α-Runx2 and JunB Abs using previously described methods (Zhao et al., 2010, J. Bone Min. Res. 25:1246-1256; Zhao et al., 2011, Stem cells 29:1601-1610).

For the compound `NCC(P(=O)(O)O)P(=O)(O)O` [BP], the “GFP+ cells on pre-incubated bone slices” value is on record as “not”.
